Data published in patent US20170176440A1, “METHODS AND COMPOSITIONS FOR EVALUATING BREAST CANCER PATIENTS” (THE BOARD OF REGENTS OF THE UNIVERSITY OF TEXAS SYSTEM, priority 2014, published 2017).
Substitutions are numbered along the chain they refer to. In names and notes the source's numbering stands. Blank lines part the entries; values can stand above or below the molecule they belong to.

Assays:
[1] = test system: p300 recruitment to ERβ target promoters MDA7 and MSMB; experiment: p300 ChIP at ERβ target promoters in Hs578T cells; format: cell-based; details: WT-ERβ-expressing Hs578T cells; E2 10 nM
Method: For ChIP experiments in the ERβ-inducible Hs578T cells, 100 ng/ml doxcycline was added for 24 hr. […] Cells were cross-linked with 1% formaldehyde for 10 min, treated with glycine at a final concentration of 0.125 M for 5 min at room temperature, and lysed in lysis buffer (5 mM HEPES pH 9.0, 85 mM KCl, 0.5% Triton X-100) for 15 min on ice. Nuclei were resuspended in nuclei lysis buffer (50 mM Tris-HCl pH 8.0, 10 mM EDTA, 1% SDS), and the cross-linked DNA was sonicated for 10 min (with a 30 s on/off cycle) using a Bioruptor sonicator (Diagenode). The supernatant was used for ChIP as previously described (Ding et al., Mol Cell., 2008, (31)347-59).

[2] = test system: pY36 of ERβ in MDA-MB-231 cells; experiment: pY36 of endogenous ERβ in MDA-MB-231 cells treated with ERβ agonists; format: cell-based; details: agonists 10 nM, 2 hr (FIG. 19C)
[3] = two completed and published clinical trials; cited from earlier work
Flag-ERβ (WT) = target: T1, Flag-ERβ (WT)
T1 chain: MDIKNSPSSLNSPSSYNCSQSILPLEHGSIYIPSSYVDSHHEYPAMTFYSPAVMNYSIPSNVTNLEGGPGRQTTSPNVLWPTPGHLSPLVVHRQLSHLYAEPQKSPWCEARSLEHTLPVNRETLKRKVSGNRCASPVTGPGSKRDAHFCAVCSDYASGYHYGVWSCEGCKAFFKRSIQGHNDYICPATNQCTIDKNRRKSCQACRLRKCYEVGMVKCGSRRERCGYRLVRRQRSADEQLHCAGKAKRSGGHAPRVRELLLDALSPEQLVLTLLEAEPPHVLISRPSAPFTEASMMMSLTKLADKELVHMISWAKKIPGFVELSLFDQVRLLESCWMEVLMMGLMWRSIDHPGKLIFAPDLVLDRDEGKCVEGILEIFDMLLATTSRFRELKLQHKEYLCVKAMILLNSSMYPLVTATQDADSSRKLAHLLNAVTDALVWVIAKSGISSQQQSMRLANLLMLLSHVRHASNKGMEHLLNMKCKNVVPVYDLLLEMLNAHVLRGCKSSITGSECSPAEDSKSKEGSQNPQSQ

[4] = target: T2, ERβ pY36-containing peptide SIYIPSS(pY)VDSHHE
T2 chain: SIYIPSSYVDSHHE

p300 = target: T3, p300 (UniProt Q09472 2-2414, limits assumed); experiment: co-IP of Flag-ERβ with endogenous p300 in HEK293T cells
T3 construct: also called endogenous p300
T3 sequence (Q09472 2-2414 limits assumed): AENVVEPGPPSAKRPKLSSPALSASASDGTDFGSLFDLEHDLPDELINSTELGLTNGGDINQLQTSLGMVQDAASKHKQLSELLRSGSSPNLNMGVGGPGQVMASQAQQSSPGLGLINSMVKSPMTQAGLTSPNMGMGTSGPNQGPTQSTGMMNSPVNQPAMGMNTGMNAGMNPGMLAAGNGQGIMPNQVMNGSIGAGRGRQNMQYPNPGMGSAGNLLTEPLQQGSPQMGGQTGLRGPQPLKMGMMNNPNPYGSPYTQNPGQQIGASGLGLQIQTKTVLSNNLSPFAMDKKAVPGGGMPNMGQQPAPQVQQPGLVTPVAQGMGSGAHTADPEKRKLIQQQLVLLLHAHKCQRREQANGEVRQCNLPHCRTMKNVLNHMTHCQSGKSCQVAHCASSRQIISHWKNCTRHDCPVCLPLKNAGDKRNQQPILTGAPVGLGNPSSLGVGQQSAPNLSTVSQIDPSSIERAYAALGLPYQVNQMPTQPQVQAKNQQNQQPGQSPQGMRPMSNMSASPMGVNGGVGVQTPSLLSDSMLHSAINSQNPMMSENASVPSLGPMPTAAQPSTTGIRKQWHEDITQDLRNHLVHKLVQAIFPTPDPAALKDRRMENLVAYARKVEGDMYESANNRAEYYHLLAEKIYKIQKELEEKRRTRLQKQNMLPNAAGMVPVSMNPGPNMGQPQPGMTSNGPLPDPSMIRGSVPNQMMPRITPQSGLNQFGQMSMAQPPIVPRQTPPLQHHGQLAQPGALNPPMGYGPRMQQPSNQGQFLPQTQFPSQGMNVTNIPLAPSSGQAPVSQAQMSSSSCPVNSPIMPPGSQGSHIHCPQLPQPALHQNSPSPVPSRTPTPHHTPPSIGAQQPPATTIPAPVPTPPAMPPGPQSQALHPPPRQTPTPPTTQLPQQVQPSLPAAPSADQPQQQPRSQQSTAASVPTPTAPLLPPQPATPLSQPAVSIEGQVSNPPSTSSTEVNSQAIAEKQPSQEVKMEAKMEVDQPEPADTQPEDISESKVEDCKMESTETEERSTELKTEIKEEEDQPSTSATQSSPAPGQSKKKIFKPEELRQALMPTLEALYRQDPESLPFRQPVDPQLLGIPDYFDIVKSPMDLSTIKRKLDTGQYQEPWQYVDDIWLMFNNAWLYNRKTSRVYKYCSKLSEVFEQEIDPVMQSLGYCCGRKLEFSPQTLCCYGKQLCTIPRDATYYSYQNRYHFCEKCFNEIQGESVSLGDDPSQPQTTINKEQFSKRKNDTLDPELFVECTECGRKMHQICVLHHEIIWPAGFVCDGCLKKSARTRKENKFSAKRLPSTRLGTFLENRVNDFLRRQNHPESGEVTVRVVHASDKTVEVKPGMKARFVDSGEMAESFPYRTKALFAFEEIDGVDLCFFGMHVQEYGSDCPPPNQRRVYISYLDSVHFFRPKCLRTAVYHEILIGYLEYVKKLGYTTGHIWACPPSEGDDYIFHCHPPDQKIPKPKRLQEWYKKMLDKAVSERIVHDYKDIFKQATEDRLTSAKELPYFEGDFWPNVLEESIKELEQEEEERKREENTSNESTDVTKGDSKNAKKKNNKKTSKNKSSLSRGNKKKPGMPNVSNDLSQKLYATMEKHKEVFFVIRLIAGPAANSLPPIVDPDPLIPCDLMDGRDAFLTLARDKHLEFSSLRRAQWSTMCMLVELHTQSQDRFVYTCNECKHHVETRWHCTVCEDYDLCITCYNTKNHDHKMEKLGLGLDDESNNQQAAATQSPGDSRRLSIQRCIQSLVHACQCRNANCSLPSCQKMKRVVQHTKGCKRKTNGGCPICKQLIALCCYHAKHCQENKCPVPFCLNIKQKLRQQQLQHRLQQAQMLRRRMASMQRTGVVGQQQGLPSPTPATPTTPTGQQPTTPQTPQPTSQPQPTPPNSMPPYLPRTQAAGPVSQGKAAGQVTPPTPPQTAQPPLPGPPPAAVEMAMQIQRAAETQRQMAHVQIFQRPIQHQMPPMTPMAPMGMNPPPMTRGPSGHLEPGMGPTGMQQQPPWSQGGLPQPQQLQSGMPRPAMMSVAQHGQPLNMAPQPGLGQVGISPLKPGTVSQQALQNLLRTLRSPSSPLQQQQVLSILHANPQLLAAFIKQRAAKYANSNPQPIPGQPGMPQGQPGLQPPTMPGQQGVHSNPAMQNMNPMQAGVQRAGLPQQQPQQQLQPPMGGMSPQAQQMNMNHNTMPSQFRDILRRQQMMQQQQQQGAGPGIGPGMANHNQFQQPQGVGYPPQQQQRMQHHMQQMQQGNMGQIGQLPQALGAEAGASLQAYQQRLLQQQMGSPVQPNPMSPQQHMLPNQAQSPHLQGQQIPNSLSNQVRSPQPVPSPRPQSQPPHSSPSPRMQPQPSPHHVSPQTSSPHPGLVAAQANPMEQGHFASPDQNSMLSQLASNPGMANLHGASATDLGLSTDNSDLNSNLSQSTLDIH

Molecule: C[C@]12CC[C@@H]3c4ccc(O)cc4CC[C@H]3[C@@H]1CC[C@@H]2O [E2, 17-β-estradiol]
recruitment of p300 to the ERβ target promoters [1]: stimulated cyclic recruitment of p300 | ERβ phosphorylation (pY36) [2]: enhanced

Molecule: Oc1ccc([C@H]2COc3cc(O)ccc3C2)cc1 [S-equol]
safety and drug tolerance [3]: has been demonstrated | ERβ phosphorylation (pY36) [2]: enhanced

Molecule: N#CC(Cc1ccc(O)cc1)c1ccc(O)cc1 (stereo not drawn) [DPN, diarylpropionitrile]
ERβ phosphorylation (pY36) [2]: enhanced

B1: GST-EYA2 (protein)
chain: MVELVISPSLTVNSDCLDKLKFNRADAAVWTLSDRQGITKSAPLRVSQLFSRSCPRVLPRQPSTAMAAYGQTQYSAGIQQATPYTAYPPPAQAYGIPSYSIKTEDSLNHSPGQSGFLSYGSSFSTSPTGQSPYTYQMHGTTGFYQGGNGLGNAAGFGSVHQDYPSYPGFPQSQYPQYYGSSYNPPYVPASSICPSPLSTSTYVLQEASHNVPNQSSESLAGEYNTHNGPSTPAKEGDTDRPHRASDGKLRGRSKRSSDPSPAGDNEIERVFVWDLDETIIIFHSLLTGTFASRYGKDTTTSVRIGLMMEEMIFNLADTHLFFNDLEDCDQIHVDDVSSDDNGQDLSTYNFSADGFHSSAPGANLCLGSGVHGGVDWMRKLAFRYRRVKEMYNTYKNNVGGLIGTPKRETWLQLRAELEALTDLWLTHSLKALNLINSRPNCVNVLVTTTQLIPALAKVLLYGLGSVFPIENIYSATKTGKESCFERIMQRFGRKAVYVVIGDGVEEEQGAKKHNMPFWRISCHADLEALRHALELEYL
in vitro dephosphorylation of immunoprecipitated Flag-ERβ, pY36 immunoblot (Flag-ERβ (WT)): recombinant WT, but not mutant EYA2 completely eliminated the pY36 signal of ERβ in vitro | in vitro tyrosine phosphatase assay (release of free phosphate, Malachite Green) [4]: A pY36-containing ERβ peptide that can be dephosphorylated efficiently by recombinant WT-EYA2

binding result (p300): binds
B2: Flag-ERβ (WT) (receptor)
chain: T1 chain
modifications: phosphotyrosine at 36 (pY36), as phosphorylated in HEK293T cells
notes: Expressed in HEK293T cells and immunoprecipitated by the Flag tag; also called WT-ERβ; Flag-tagged WT ERβ; not shown: Flag tag

binding result (p300): binds
B3: Flag-ERβ Y36E (receptor)
chain: T1 chain with Y36E
notes: Expressed in HEK293T cells; also called Y36E-ERβ; Y36E mutant; not shown: Flag tag
